Tests used:
[1] = system: TE-15 (Esophageal Squamous Cell Carcinoma); experiment: Bliss excess, mean over the matrix (fraction); higher = more synergy
Method in brief: (§1)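 Cell lines in DMEM/F12 or RPMI with 10% FBS were plated in 1536-well plates, held 24 hours at 37°C, 5% CO2, then given two-drug dose matrices for 72 hours (DMSO typically 0.2%). Viability was read by CellTiter-Glo 2.0 luminescence and scaled as inhibition from 0 (vehicle wells) to 1 (blank wells). Combination Emax is the second-highest inhibition in the matrix; Bliss excess is observed combination effect minus expected EA + EB − EA·EB, EA and EB being single-agent effects.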

[2] = system: NCI-H82 (Small Cell Lung Carcinoma); experiment: as above
Method in brief: as §1

[3] = system: LB831-BLC (Bladder Carcinoma); experiment: as above
Method in brief: as §1

[4] = system: CCRF-CEM (T-Lymphoblastic Leukemia); experiment: as above
Method in brief: as §1

[5] = system: HO-1-N-1 (Oral Cavity Carcinoma); experiment: combination Emax (second highest fraction inhibited in the dose matrix, 72 h); higher = more inhibition; extreme values may be limits of the assay
Method in brief: as §1

KELLY (Neuroblastoma) = experiment: as above
Method in brief: as §1

[6] = system: CAL-148 (Breast Carcinoma); experiment: as above
Method in brief: as §1

HOS (Osteosarcoma) = experiment: as above
Method in brief: as §1

[7] = system: UM-UC-3 (Bladder Carcinoma); experiment: as above
Method in brief: as §1

[8] = system: CaR-1 (Colorectal Carcinoma); experiment: as above
Method in brief: as §1

[9] = system: NCI-H82 (Small Cell Lung Carcinoma); experiment: as above
Method in brief: as §1

[10] = system: NCI-H2085 (Non-Small Cell Lung Carcinoma); experiment: as above
Method in brief: as §1

[11] = system: Hs-578-T (Breast Carcinoma); experiment: as above
Method in brief: as §1

[12] = system: HT-1376 (Bladder Carcinoma); experiment: as above
Method in brief: as §1

[13] = system: LB831-BLC (Bladder Carcinoma); experiment: as above
Method in brief: as §1

[14] = system: KURAMOCHI (Ovarian Carcinoma); experiment: as above
Method in brief: as §1

[15] = system: Ramos-2G6-4C10 (Burkitt's Lymphoma); experiment: as above
Method in brief: as §1

[16] = system: LS-180 (Colorectal Carcinoma); experiment: as above
Method in brief: as §1

T98G (Glioblastoma) = experiment: as above
Method in brief: as §1

[17] = system: CCRF-CEM (T-Lymphoblastic Leukemia); experiment: as above
Method in brief: as §1
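Throughout, for Bliss excess, mean over the matrix: after 72 h of two-drug dosing.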

| Structure (SMILES) | Bliss excess [1] | Bliss excess [2] | Bliss excess [3] | Bliss excess [4] | combination Emax [5] | combination Emax (KELLY (Neuroblastoma)) | combination Emax [6] | combination Emax (HOS (Osteosarcoma)) | combination Emax [7] | combination Emax [8] | combination Emax [9] | combination Emax [10] | combination Emax [11] | combination Emax [12] | combination Emax [13] | combination Emax [14] | combination Emax [15] | combination Emax [16] | combination Emax (T98G (Glioblastoma)) | combination Emax [17] |
| --- | --- | --- | --- | --- | --- | --- | --- | --- | --- | --- | --- | --- | --- | --- | --- | --- | --- | --- | --- | --- |
| CS(=O)(=O)CCNCc1ccc(-c2ccc3ncnc(Nc4ccc(OCc5cccc(F)c5)c(Cl)c4)c3c2)o1 [Lapatinib] + NC1(c2ccc(-c3nc4ccn5c(=O)[nH]nc5c4cc3-c3ccccc3)cc2)CCC1 [MK-2206] (first compound max 10 µM, 7x7, partner max 10 µM) | -0.0202 | -0.0176 | -0.0044 | 0.026 | 0.963 | 0.959 | 0.996 | 0.561 | 0.253 | 0.779 | 0.932 | 0.587 | 0.936 | 0.177 | 0.39 | 0.763 | 0.954 | 0.795 | 0.908 | 0.892 |
| C[C@@H](Nc1cc(F)cc(F)c1)c1cc(C(=O)N(C)C)cc2c(=O)cc(N3CCOCC3)oc12 [AZD8186] + C1CN(CCC1(C(=O)N[C@@H](CCO)C2=CC=C(C=C2)Cl)N)C3=NC=NC4=C3C=CN4 [AZD5363] (first compound max 10 µM, 7x7, partner max 10 µM) | 0.0126 | -0.0759 | -0.0398 | 0.007 | 0.54 | 0.115 | 0.989 | 0.336 | 0.4 | 0.394 | 0.358 | 0.542 | 0.7 | 0.116 | 0.442 | 0.254 | 0.26 | 0.419 | 0.562 | 0.411 |
| Cc1nc(-c2cn3c(n2)-c2ccc(-c4cnn(C(C)(C)C(N)=O)c4)cc2OCC3)n(C(C)C)n1 [Taselisib] + O=C(Nc1ccc2[nH]nc(-c3ccncc3)c2c1)[C@@H]1CCN(CC(=O)N2CCN(c3ccc(-c4ncccn4)cc3)CC2)C1 [SCH772984] (first compound max 10 µM, 7x7, partner max 5 µM) | -0.0011 | -0.0251 | -0.0305 | 0.124 | 0.999 | 0.635 | 0.964 | 0.564 | 0.716 | 0.872 | 0.429 | 0.603 | 0.89 | 0.227 | 0.641 | 0.683 | 0.163 | 0.867 | 0.851 | 0.611 |
| O=C(c1cc(Cc2n[nH]c(=O)c3ccccc23)ccc1F)N1CCN(C(=O)C2CC2)CC1 [Olaparib] + COc1nnc2ccc(N3CCC(c4ccc(OCCN5CCN(C)C(=O)[C@H]5C)cc4)CC3)nn12 [AZD5153] (first compound max 10 µM, 7x7, partner max 1 µM) | -0.0671 | -0.0326 | -0.0889 | 0.0457 | 0.604 | 0.397 | 0.73 | 0.402 | 0.359 | 0.277 | 0.535 | 0.383 | 0.729 | 0.0928 | 0.465 | 0.772 | 0.611 | 0.581 | 0.408 | 0.714 |
| N#Cc1cnc(Nc2cc(NC[C@H]3CNCCO3)c(C(F)(F)F)cn2)cn1 [SRA737] + CCc1c2c(nc3ccc(O)cc13)-c1cc3c(c(=O)n1C2)COC(=O)[C@]3(O)CC [SN-38] (first compound max 10 µM, 7x7, partner max 0.3 µM) | -0.0928 | 0.0325 | 0.0497 | -0.034 | 0.975 | 1 | 0.907 | 0.849 | 0.967 | 0.791 | 0.967 | 0.665 | 0.804 | 0.566 | 0.904 | 0.9 | 1 | 0.74 | 0.921 | 1 |
| Cc1c2c(nn1C)CSCc1cc(n(C)n1)CSc1cc(c3ccccc3c1)OCCCc1c(C(=O)O)n(C)c3c-2c(Cl)ccc13 [AZD5991] + CS(=O)(=O)CCNCc1ccc(-c2ccc3ncnc(Nc4ccc(OCc5cccc(F)c5)c(Cl)c4)c3c2)o1 [Lapatinib] (first compound max 1 µM, 7x7, partner max 10 µM) | -0.012 | -0.0161 | -0.0215 | -0.0676 | 0.962 | 1 | 0.492 | 0.303 | 0.169 | 0.432 | 0.963 | 0.47 | 0.833 | 0.33 | 0.55 | 0.674 | 0.996 | 0.482 | 0.412 | 0.594 |
| C[C@@H]1COCCN1c1cc(C2([S@](C)(=N)=O)CC2)nc(-c2ccnc3[nH]ccc23)n1 [AZD6738] + Nc1ccn([C@@H]2O[C@H](CO)[C@@H](O)C2(F)F)c(=O)n1 [Gemcitabine] (first compound max 10 µM, 7x7, partner max 0.3 µM) | 0.0378 | -0.0333 | 0.113 | 0.0838 | 1 | 1 | 1 | 0.87 | 0.966 | 0.752 | 0.987 | 0.587 | 0.772 | 0.491 | 0.9 | 0.667 | – | 0.819 | 0.858 | 1 |

Source: the supplement of paper PMC11061612
